# Results from patent US9445596B2, “Small molecule compounds for the control of nematodes” (California Institute of Technology, priority 2011, dated 2016).
# “Also recorded” adds a separate entry of the source.
# Legend:
# [1] = test system: several of the tested nematode species; assay: Retention assay, several nematode species; assay type: in vivo; conditions: 1 nM, 1 μM and 1 mM tested
# Experimental: (§1) OP50 E. coli was grown on a standard 5 cm agar plate (made with standard Nematode Growth Medium). The bacterial lawn was 16 mm in diameter and was grown overnight at 20° C. before being used in trials. Two 4 mm spots (0.6 μL) were placed on opposite sides of the bacterial lawn (using a transparent template to guide spot placement), and several minutes elapsed for the liquid to settle in before placing nematodes down on the assay. Recording began immediately upon worm placement. 0.6 μL of the control was placed on one side of the lawn, and 0.6 μL of the experimental cue was placed on the other side of the lawn, changing the location of the cue throughout trials between left/right and top/bottom to avoid bias.
# Nematodes were isolated by gender at the L4 stage the day before being used in trials as developed adults. Worms were evenly divided and placed at two points equidistant from the foci of the scoring region. Trials were recorded for 20 minutes, and frames were collected for analysis at 1 frame per second. Results were averaged from at least three different trials. For every nematode species in this study, a different total number of worms (using water in both scoring regions) was tested to determine the minimum number of worms necessary for consistent unbiased results over a 20 minute trial. The total number of worms used in the multiple species assays depended on that species' optimal parameters. 10 worms were used for P. redivivus males and females, 20 worms were used for C. elegans males and O. dolichuridae males, and 14 worms were used for S. glaseri males. The Automated Software was used to compare worm occupancy in each scoring region over time, and the Chemotaxis Index (Bargmann et al., Cell 74:515-27 (1993), which is hereby incorporated by reference in its entirety) was adapted to score preference or avoidance to each ascaroside.
# A video camera attached to the microscope produced a digital video stream, which was then analyzed. The ratio of the time the average worm spent in each region of interest was calculated for every trial. For ease of implementation, all worms in a single experiment were assumed to be roughly the same size. Thus worm pixels were counted instead of whole worms, allowing fractions of a worm in the region of interest to be taken into account. It also eliminated the need for a shape-based worm identification algorithm, and allowed each frame to be analyzed independently. A band-pass filter was applied to each frame to eliminate the effect of uneven lighting and also accentuate the worms against the background. The worm was then identified after thresholding the filtered image. Throughout each experiment, the locations and sizes of the regions of interest were known. Through the filtering described above, it is known which pixels are occupied by worms and which ones are not. Thus, the ratio of worm-pixels to all pixels inside the region of interest can be calculated to produce the worm-occupancy ratio. This calculation was done for every frame, giving a plot output of worm-occupancy ratio vs. time for each region.
# P. pacificus = assay: Dauer formation assay; assay type: in vivo, Pristionchus pacificus; conditions: even at very high concentrations (20 μM)
# Experimental: Dauer formation assays were performed as described in Ogawa et al., Curr. Biol. 19:67-71 (2009), which is hereby incorporated by reference in its entirety, using heat- or kanamycin-killed E. coli OP50. Synthetic compounds were dissolved in ethanol (0.5 mM, stock solution) and combined with water to make a […] and subsequently added to 3 mL NGM-agar without peptone ([…], 0.3, 0.1 μM final concentrations).
# [2] = test system: P. pacificus strain RSB020; assay: Mouth-form dimorphism assay; assay type: in vivo, Pristionchus pacificus; conditions: high concentrations
# Experimental: Mouth-form dimorphism assays were performed using P. pacificus strain RSB020. The synthetic compounds dissolved in ethanol (0.5 mM) were diluted with water to make 100 μl solution and subsequently added to 3 mL NGM-agar (1 μM final concentration). The assay plates were seeded with 50 μl OP50 culture in LB medium and incubated overnight at 20° C. to allow bacterial growth. Each replicate included the progeny of two mothers, which were picked as adult hermaphrodites of a consistent age (carrying 4-6 eggs) and which were all from the same P. pacificus culture plate. Following the placement of mothers on assay plates, plates were kept at 20° C. for six days, such that the entire broods were adults at the time of screening. A random sample of 50 hermaphrodite progeny was screened per plate. All animals were screened by differential interference contrast (DIC) microscopy on a Zeiss Axiskop. The following discrete characters were used to discriminate eurystomatous from stenostomatous individuals, respectively: (1) claw-shaped vs. flint-shaped (i.e. dorsoventrally symmetrical) dorsal tooth; (2) presence vs. absence of a subventral tooth; (3) strongly vs. weakly sclerotized stomatal walls. No intermediate mouth-forms were observed. Experiments were conducted in triplicate for each treatment. In assays of responses to compounds of several concentrations (1, 0.3, 0.1, 0.03, 0.01 μM final concentrations), experiments were performed as described above, with the following modifications. To allow greater resolution of responses to lower concentrations, 60 randomly screened individuals in each of five replicates per concentration per compound were assayed. All concentration-curve experiments were performed in parallel using mothers picked randomly from the same two source populations. To prepare large numbers of individual mothers for these experiments, source populations were established from virgin hermaphrodites to constrain the presence of males and were conditioned to well-fed and ambient conditions for at least one generation before mothers were picked for the assays.
# males = assay: Bioassay of HPLC-purified peak; assay type: in vivo; conditions: purified peak with retention time of 9.7 minutes
# Experimental: A Thermo Finnigan LCQ Deca XP Max was used with electrospray ionization in positive ion mode in the 50-1000 AMU range. The Thermo Separation spectra HPLC system consisted of a P4000 quaternary pump, an AS 3000 auto sampler, and a UV 6000 diode array detector. The solvents were water with (a) 0.1% formic acid and (b) 90% acetonitrile-10% water with 10 mM ammonium formate. The column temperature was maintained at 60° C. and a solvent flow of 1.0 ml/min. The reversed phase column (PLRP-S Polymeric reversed phase column, 250×4.6 mmid, Varian Inc.) was eluted with a solvent composition starting with 90:10 (a,b) for 2 minutes, followed by a gradient to 5:95 in 20 minutes and an additional 5 minutes at 5:95. Ultraviolet absorption was monitored at 190 and 400 nm. Solvent flow between the ultraviolet detector and mass spectroscopy electrospray interface split 9:1 with a low-volume micro needle P450 splitter valve (Upchurch Scientific, Oak Harbor, Wash.), making it possible to obtain spectra of eluted compounds and simultaneously collect 90% of the injected material for bioassay. […] This was confirmed to be ascr#1 using NMR analysis.
# C. elegans males = assay: Retention assay, C. elegans males; assay type: in vivo
# Experimental: as §1, with “0.6 μL of the control was placed on one side of the lawn, and 0.6 μL of the experimental cue was placed on the other side of the lawn, changing the location of the cue throughout trials between left/right and top/bottom to avoid bias.” left out
# (§2) Nematodes were isolated by gender at the L4 stage the day before being used in trials as developed adults. […] Trials were recorded for 20 minutes, and frames were collected for analysis at 1 frame per second. […]
# (§3) A video camera attached to the microscope produced a digital video stream, which was then analyzed. The ratio of the time the average worm spent in each region of interest was calculated for every trial. […] Thus worm pixels were counted instead of whole worms, allowing fractions of a worm in the region of interest to be taken into account. It also eliminated the need for a shape-based worm identification algorithm, and allowed each frame to be analyzed independently. […] Thus, the ratio of worm-pixels to all pixels inside the region of interest can be calculated to produce the worm-occupancy ratio. […]
# S. glaseri males = assay: Retention assay, S. glaseri males; assay type: in vivo
# Experimental: as §1, with “0.6 μL of the control was placed on one side of the lawn, and 0.6 μL of the experimental cue was placed on the other side of the lawn, changing the location of the cue throughout trials between left/right and top/bottom to avoid bias.” left out
# as §2, §3
# [3] = test system: P. redivivus males and females; assay: Retention assay, P. redivivus; assay type: in vivo
# Experimental: as §1
# Nematodes were isolated by gender at the L4 stage the day before being used in trials as developed adults. Worms were evenly divided and placed at two points equidistant from the foci of the scoring region. Trials were recorded for 20 minutes, and frames were collected for analysis at 1 frame per second. Results were averaged from at least three different trials. For every nematode species in this study, a different total number of worms (using water in both scoring regions) was tested to determine the minimum number of worms necessary for consistent unbiased results over a 20 minute trial. The total number of worms used in the multiple species assays depended on that species' optimal parameters. […]
# as §3
# [4] = test system: C. elegans hermaphrodites and males; assay: Spot attraction assay; assay type: in vivo
# Experimental: The spot attraction assays were conducted according to a previously reported method (Pungaliya et al., PNAS 106:7708-13 (2009); Srinivasan et al., Nature 454:1115-18 (2008), which are hereby incorporated by reference in their entirety). For both C. elegans hermaphrodites and males, 50-60 worms were harvested daily at the fourth larval stage (L4) and stored segregatedly by sex at 20° C. overnight, to be used as young adults the following day. For the competition experiments, two conditions were used: 120 nM ascr#3 and 10 nM icas#3 (Condition 1), or 12 μM ascr#3 and 1 μM icas#3 (Condition 2) in water containing 10% ethanol. Aliquots were stored at −20° C. in 20 μL tubes. 10% ethanol in water was used as control.
# Attraction assays with hbas#3 were conducted as previously reported (Srinivasan et al., Nature 454:1115-18 (2008); Pungaliya et al., Proc. Natl. Acad. Sci. U.S.A. 106:7708-13 (2009), which are hereby incorporated by reference in their entirety). For the attraction assays, 50-60 hermaphrodite worms were harvested daily at the early fourth larval stage (L4) and stored at 20° C. overnight to be used as young adults the following day. Hbas#3 was dissolved in water containing 10% ethanol. Aliquots were stored at −20° C. in 20 μL tubes. 10% ethanol in water was used as control.
# C. elegans [5] = assay: Aggregation assay; assay type: in vivo
# Experimental: Aggregation behavior of worms was measured using assays reported in de Bono & Bargmann, Cell 94:679-89 (1998), which is hereby incorporated by reference in its entirety. Aggregation assays were conducted on standard NGM plates. Plates containing indole ascarosides were made by adding the indole ascaroside stock solution to the NGM media before they were poured onto the plates. These plates were dried at room temperature for 2 to 3 days. Control plates were treated similarly, except that ethanol solutions instead of icas solutions were added to the plates, corresponding to the amount of ethanol introduced via the icas solutions. Final ethanol concentrations of the plates were below 0.1% for all conditions. After drying, both control plates and plates containing indole ascarosides were seeded with 150 μl of an overnight culture of E. coli OP50 using a micropipette, and were allowed to dry for 2 days at room temperature. For “low worm density” experiments, 20 worms were placed onto the lawn and left at 20° C. for 3 hours. For “high worm density” experiments, approximately 120 worms were placed onto the bacterial lawn and left at 20° C. for 3 hours. Aggregation behavior was quantified as the number of animals that were in touch with two or more animals at greater than 50% of their body length.
# C. elegans [6] = conditions: Srinivasan et al. 2012; cited from earlier work
# C. elegans [7] = conditions: cited from earlier work
# [8] = Butcher et al., Org. Lett. 2009
Compound,preference for areas conditioned by the ascaroside [1],dauer induction (P. pacificus),induction of the eurystomatous mouth form [2],activity in the bioassay (males),concentration of conditioned regions preferred (activity threshold) (C. elegans males) [µM],concentration of conditioned regions preferred (activity threshold) (S. glaseri males) [mM],concentration of conditioned regions preferred (activity threshold) ([3]; males) [mM],"attraction in the spot attraction assay ([4]; 1 pmol, N2 hermaphrodites and him-5 males)","attraction in the spot attraction assay ([4]; high concentrations, males and hermaphrodites)","attraction of hermaphrodites ([4]; low concentrations, N2 hermaphrodites)","attraction of males ([4]; low concentrations, males)",concentrations at which active as hermaphrodite attractants and aggregation signals (C. elegans [5]; in vivo),"aggregation of hermaphrodites (C. elegans [5]; low worm density, solitary and social hermaphrodites)",response of P. redivivus females ([3]; females),response of P. redivivus males ([3]; males),aggregation in C. elegans (C. elegans [6]),dauer-inducing activity (C. elegans [7]; [8]),shape of dauer response curve (C. elegans [7]; [8]),promotion of dauer entry (C. elegans [7]; shown previously)
"C[C@H](CCCCC(=O)O)O[C@@H]1O[C@@H](C)[C@H](O)C[C@H]1O [ascr#1, reference compound]",preferred,does not induce dauer formation; also recorded: no dauer-inducing activity,weaker induction of the eurystomatous mouth form,active to males,,,,,,,,,,,,,,,
CC1O[C@@H](O[C@H](C)CCCCCCC(=O)O)C(O)C[C@H]1O (some centres unmarked) [ascr#10],preferred,,,,1,1,1,,,,,,,,,,,,
"C[C@H](CCC(=O)O)O[C@@H]1O[C@@H](C)[C@H](OC(=O)c2c[nH]c3ccccc23)C[C@H]1O [icas#9, reference compound]",,,,,,,,attractive to both C. elegans sexes,attracted both males and hermaphrodites,strongly attracted,not attracted; also recorded: not males,femtomolar to picomolar,increased aggregation of both solitary and social hermaphrodites,repeled,elicited no response,aggregating stimulant,moderate dauer-inducing activity,bell-shaped response curve,individually promote dauer entry
